According to ChEMBL document CHEMBL1909046, “DrugMatrix in vitro pharmacology data”:

Columns and labels:
[1] = target: T1, B2 bradykinin receptor (Homo sapiens, UniProt P30411); type: cell membranes, Membrane; settings: chem-1; also: in other assays of this panel Not Active means under 50% inhibition at 10 µM
T1 sequence (P30411 whole entry): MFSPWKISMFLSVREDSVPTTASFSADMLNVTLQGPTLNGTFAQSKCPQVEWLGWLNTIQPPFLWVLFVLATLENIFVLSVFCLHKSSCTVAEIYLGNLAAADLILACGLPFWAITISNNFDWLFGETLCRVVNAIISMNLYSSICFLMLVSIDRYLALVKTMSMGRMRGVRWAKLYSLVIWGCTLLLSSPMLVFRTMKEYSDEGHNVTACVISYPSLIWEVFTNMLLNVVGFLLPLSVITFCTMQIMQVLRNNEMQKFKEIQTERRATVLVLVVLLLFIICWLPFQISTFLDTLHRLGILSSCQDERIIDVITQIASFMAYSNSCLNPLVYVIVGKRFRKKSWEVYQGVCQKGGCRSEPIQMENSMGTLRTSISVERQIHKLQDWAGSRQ

[2] = target: 5-hydroxytryptamine receptor 1B (Rattus norvegicus, UniProt P28564); type: cell membranes, Wistar, Cerebral cortex, Membrane; also: in other assays of this panel Not Active means under 50% inhibition at 10 µM
[3] = target: T2, Cytochrome P450 2A6 (Homo sapiens, UniProt P11509); settings: bti-tn-5b1-4; also: in other assays of this panel Not Active means under 50% inhibition at 10 µM
T2 sequence (P11509 whole entry): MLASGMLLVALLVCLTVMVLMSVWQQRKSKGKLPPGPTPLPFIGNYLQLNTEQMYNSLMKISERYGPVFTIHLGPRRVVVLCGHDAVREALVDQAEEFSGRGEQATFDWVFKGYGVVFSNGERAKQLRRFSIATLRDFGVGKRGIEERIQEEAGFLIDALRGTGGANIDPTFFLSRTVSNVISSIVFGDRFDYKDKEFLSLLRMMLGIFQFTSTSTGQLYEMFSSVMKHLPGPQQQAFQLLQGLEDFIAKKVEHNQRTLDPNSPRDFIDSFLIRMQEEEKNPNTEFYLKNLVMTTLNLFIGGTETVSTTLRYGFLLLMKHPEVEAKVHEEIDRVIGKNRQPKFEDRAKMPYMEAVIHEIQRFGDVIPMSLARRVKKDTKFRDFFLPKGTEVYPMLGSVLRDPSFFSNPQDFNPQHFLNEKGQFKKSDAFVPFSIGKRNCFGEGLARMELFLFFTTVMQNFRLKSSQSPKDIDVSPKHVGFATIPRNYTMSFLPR

[4] = DRUGMATRIX: Calcium Channel Type L, Phenylalkylamine radioligand binding (ligand: [3H] (-)-Desmethoxyverapamil (D-888)); type: cell membranes, Rattus norvegicus, Wistar, Brain, Membrane; settings: Not Active = under 50% inhibition at 10 µM
[5] = target: T3, Estrogen receptor (Homo sapiens, UniProt P03372); settings: sf9; also: in other assays of this panel Not Active means under 50% inhibition at 10 µM
T3 sequence (P03372 whole entry): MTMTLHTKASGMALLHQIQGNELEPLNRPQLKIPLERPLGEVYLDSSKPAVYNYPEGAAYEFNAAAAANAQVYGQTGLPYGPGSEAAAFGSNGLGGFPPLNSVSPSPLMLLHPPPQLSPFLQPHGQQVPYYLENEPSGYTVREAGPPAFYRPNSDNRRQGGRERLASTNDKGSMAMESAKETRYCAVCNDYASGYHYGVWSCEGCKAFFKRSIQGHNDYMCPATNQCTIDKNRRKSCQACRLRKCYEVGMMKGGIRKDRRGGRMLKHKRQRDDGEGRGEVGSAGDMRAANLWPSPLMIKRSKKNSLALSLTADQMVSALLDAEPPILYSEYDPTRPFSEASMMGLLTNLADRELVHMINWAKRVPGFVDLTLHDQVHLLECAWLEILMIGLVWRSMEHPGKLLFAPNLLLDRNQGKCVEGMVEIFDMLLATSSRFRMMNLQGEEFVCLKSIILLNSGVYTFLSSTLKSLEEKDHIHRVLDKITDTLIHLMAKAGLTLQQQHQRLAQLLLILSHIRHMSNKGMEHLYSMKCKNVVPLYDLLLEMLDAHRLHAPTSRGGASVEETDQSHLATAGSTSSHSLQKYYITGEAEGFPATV

[6] = target: C-C chemokine receptor type 2 (Homo sapiens, UniProt P41597); type: cell membranes, CHO-K1, Membrane; also: in other assays of this panel Not Active means under 50% inhibition at 10 µM
[7] = target: C-C chemokine receptor type 5 (Homo sapiens, UniProt P51681); type: cell membranes, HEK293, Membrane; settings: hek293; also: in other assays of this panel Not Active means under 50% inhibition at 10 µM
Sequence of C-C chemokine receptor type 5 (P51681 whole entry): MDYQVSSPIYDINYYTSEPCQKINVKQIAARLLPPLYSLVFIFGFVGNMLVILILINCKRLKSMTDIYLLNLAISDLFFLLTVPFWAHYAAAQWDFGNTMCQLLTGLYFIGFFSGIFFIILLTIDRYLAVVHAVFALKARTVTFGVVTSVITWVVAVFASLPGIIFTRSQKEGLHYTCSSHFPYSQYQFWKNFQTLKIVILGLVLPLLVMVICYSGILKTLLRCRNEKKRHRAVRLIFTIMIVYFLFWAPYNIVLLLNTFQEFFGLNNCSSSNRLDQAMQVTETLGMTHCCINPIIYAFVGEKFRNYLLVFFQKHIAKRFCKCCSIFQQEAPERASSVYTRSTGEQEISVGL

Sequence of C-C chemokine receptor type 2 (P41597 whole entry): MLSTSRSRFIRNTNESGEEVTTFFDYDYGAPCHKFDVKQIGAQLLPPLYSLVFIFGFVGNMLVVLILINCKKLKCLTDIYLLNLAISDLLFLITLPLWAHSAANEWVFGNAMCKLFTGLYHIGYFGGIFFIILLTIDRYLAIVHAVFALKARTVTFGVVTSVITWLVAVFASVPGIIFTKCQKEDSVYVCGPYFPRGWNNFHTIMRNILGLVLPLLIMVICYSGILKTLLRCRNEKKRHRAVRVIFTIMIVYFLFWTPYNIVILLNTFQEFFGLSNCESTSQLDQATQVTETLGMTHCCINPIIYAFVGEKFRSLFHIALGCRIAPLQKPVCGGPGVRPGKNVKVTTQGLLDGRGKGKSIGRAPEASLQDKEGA
Sequence of 5-hydroxytryptamine receptor 1B (P28564 whole entry): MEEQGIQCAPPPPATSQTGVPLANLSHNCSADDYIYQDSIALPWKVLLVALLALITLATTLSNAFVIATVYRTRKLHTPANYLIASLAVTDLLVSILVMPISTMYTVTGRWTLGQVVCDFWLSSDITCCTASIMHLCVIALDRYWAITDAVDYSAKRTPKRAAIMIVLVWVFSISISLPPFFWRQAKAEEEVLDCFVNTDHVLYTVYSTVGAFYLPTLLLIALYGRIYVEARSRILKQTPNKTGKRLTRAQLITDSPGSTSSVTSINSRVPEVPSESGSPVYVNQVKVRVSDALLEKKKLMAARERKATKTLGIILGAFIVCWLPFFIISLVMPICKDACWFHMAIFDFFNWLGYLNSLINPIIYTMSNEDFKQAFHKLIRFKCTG

Molecule	IC50 [1]	IC50 ([2]; read-out: IC50)	Ki ([2]; read-out: Ki)	IC50 [3]	Ki [3]	IC50 ([4]; read-out: IC50)	Ki ([4]; read-out: Ki)	IC50 [5]	IC50 ([6]; cho-k1)	IC50 [7]	IC50 [2]	IC50 [4]	Ki [4]	Ki [1]	Ki [2]	Ki [5]	Ki ([6]; cho-k1)	Ki [7]	IC50 ([6]; read-out: IC50)	Ki ([6]; read-out: Ki)
Cc1cc(C(C)(C)C)c(O)c(C)c1CC1=NCCN1 [OXYMETAZOLINE]	Not Active	2 nM	0.909 nM	Not Active	Not Active	2250 nM	2180 nM	Not Active	Not Active	Not Active										
O=C(Nc1ccc(Cl)c(Cl)c1)c1cc(Cl)cc(Cl)c1O [3,3',4',5-TETRACHLOROSALICYLANILIDE]	Not Active			Not Active	Not Active			Not Active	Not Active	Not Active	Not Active	Not Active	Not Active							
O=C(O)CO [GLYCOLIC ACID]	Not Active			Not Active	Not Active			Not Active	Not Active	Not Active	Not Active	Not Active	Not Active							
COC(=O)C[C@](O)(CCC(C)(C)O)C(=O)O[C@@H]1C(OC)=C[C@]23CCCN2CCc2cc4c(cc2[C@H]13)OCO4 [HARRINGTONINE]	Not Active			Not Active	Not Active			Not Active	Not Active	Not Active	Not Active	Not Active	Not Active							
C[N+](C)(C)CCOP(=O)([O-])OC[C@H](O)CO	Not Active			Not Active	Not Active			Not Active	Not Active	Not Active	Not Active	Not Active	Not Active							
CC12CCC(CC1=O)C2(C)C (centres undefined) [CAMPHOR]	Not Active			Not Active	Not Active			Not Active	Not Active	Not Active	Not Active	Not Active	Not Active							
POVIDONE	Not Active			Not Active	Not Active			Not Active	Not Active	Not Active	Not Active	Not Active	Not Active	Not Active	Not Active	Not Active	Not Active	Not Active		
CN(Cc1cc(Br)cc(Br)c1N)C1CCCCC1 [BROMHEXINE]	Not Active			Not Active	Not Active			Not Active	Not Active	Not Active	Not Active	Not Active	Not Active							
CCN1CCN(C(=O)N[C@@H](C(=O)N[C@@H]2C(=O)N3[C@@H]2SC(C)(C)[C@@H]3C(=O)O)c2ccccc2)C(=O)C1=O [PIPERACILLIN]	Not Active			Not Active	Not Active			Not Active	Not Active	Not Active	Not Active	Not Active	Not Active							
O=C(O)c1ccccc1 [BENZOIC ACID]	Not Active			Not Active	Not Active			Not Active	Not Active	Not Active	Not Active	Not Active	Not Active							
c1ccc2c(c1)Nc1ccccc1S2 [PHENOTHIAZINE]	Not Active			Not Active	Not Active			Not Active	Not Active	Not Active	Not Active	Not Active	Not Active							
CHROMIC CHLORIDE	Not Active			Not Active	Not Active			Not Active	Not Active	Not Active	Not Active	Not Active	Not Active	Not Active	Not Active	Not Active	Not Active	Not Active		
Cl.NC[C@H]1CC[C@H](C(=O)Oc2ccc(CCC(=O)O)cc2)CC1 [CETRAXATE HYDROCHLORIDE]	Not Active			Not Active	Not Active			Not Active	Not Active	Not Active	Not Active	Not Active	Not Active							
O=c1[nH]c2ccccc2c2ccccc12	Not Active			Not Active	Not Active			Not Active	Not Active	Not Active	Not Active	Not Active	Not Active							
C[C@H](C(=O)O)c1ccc2oc(-c3ccc(F)cc3)nc2c1 [FLUNOXAPROFEN]	Not Active			Not Active	Not Active			Not Active	Not Active	Not Active	Not Active	Not Active	Not Active							
O=C(O)CCc1nc(-c2ccccc2)c(-c2ccccc2)o1 [OXAPROZIN]	Not Active			Not Active	Not Active			Not Active	Not Active	Not Active	Not Active	Not Active	Not Active							
CC(=O)[C@]1(O)Cc2c(O)c3c(c(O)c2[C@@H](O[C@H]2C[C@H](N)[C@H](O)[C@H](C)O2)C1)C(=O)c1ccccc1C3=O [IDARUBICIN]	Not Active			Not Active	Not Active			Not Active	Not Active	Not Active	Not Active	Not Active	Not Active							
NS(=O)(=O)c1cc(C(=O)O)c(NCc2ccco2)cc1Cl [FUROSEMIDE]	Not Active			Not Active	Not Active			Not Active	Not Active	Not Active	Not Active	Not Active	Not Active							
O=C1CN(/N=C/c2ccc([N+](=O)[O-])o2)C(=O)N1 [NITROFURANTOIN]	Not Active			Not Active	Not Active			Not Active	Not Active	Not Active	Not Active	Not Active	Not Active							
CARBOXYMETHYLCELLULOSE	Not Active			Not Active	Not Active			Not Active	Not Active	Not Active	Not Active	Not Active	Not Active	Not Active	Not Active	Not Active	Not Active	Not Active		
c1ccc2sc(SSc3nc4ccccc4s3)nc2c1 [BENZOTHIAZYL DISULFIDE]	Not Active			Not Active	Not Active			Not Active		Not Active	Not Active	Not Active	Not Active						2410 nM	929 nM
CC12CCC(CC1)C(C)(C)O2 [EUCALYPTOL]	Not Active			Not Active	Not Active			Not Active	Not Active	Not Active	Not Active	Not Active	Not Active							
CC(=O)Nc1ccc2c(c1)Cc1ccccc1-2 [2-ACETYLAMINOFLUORENE]	Not Active			Not Active	Not Active			Not Active	Not Active	Not Active	Not Active	Not Active	Not Active							
